Measured values taken from paper PMC9841765 (Archives of biochemistry and biophysics, 2020).

Legend:
Experiment in all cases: malachite green phosphate release
Format in all cases: biochemical
Details in all cases: pH 8.0, 5 mM MgCl2, 200 mM KCl, 37 °C
[1] = target: LmNFeoB (Listeria monocytogenes, UniProt Q8Y5F9)
[2] = target: T1, SmNFeoB (Streptococcus mutans, UniProt Q8DVC3)
T1 sequence (Q8DVC3 1-273): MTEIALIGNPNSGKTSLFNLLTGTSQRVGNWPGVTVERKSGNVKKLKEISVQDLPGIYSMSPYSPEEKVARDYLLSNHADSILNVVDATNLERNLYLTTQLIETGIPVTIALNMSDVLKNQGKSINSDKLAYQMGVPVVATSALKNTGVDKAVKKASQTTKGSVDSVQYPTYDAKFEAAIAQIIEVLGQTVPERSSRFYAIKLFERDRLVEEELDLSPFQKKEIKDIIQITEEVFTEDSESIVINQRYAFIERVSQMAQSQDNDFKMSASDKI

[3] = target: T2, BcNFeoB (Bacillus cereus, UniProt Q72YQ6)
T2 sequence (Q72YQ6 1-269): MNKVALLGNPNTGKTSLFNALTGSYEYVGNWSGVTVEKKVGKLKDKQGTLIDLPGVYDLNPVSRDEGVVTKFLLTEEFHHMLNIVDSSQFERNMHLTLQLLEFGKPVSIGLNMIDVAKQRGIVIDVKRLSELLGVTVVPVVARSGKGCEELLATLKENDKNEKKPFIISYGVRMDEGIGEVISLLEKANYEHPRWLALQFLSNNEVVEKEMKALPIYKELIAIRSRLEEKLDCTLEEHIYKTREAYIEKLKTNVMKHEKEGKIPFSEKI

[4] = target: SaNFeoB (Staphylococcus aureus, UniProt Q5HD01)
Sequence of SaNFeoB (Q5HD01 1-272): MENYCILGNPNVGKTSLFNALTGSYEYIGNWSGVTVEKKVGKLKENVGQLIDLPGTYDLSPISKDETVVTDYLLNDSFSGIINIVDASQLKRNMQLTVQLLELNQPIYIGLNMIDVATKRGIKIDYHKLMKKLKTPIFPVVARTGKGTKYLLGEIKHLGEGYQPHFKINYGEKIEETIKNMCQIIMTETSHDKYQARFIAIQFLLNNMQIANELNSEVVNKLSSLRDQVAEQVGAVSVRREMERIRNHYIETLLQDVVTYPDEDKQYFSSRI

[5] = target: StNFeoB (Salmonella enterica, UniProt P74884)
Sequence of StNFeoB (P74884 1-274): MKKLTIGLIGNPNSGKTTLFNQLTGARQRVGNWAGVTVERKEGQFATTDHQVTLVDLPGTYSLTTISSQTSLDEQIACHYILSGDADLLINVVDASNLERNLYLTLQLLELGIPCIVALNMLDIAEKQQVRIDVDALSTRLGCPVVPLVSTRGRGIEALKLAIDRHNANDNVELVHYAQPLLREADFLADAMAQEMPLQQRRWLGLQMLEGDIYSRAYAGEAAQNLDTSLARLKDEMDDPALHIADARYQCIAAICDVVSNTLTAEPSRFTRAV

[6] = target: T3, EcNFeoB (Escherichia coli, UniProt P33650)
T3 sequence (P33650 1-274): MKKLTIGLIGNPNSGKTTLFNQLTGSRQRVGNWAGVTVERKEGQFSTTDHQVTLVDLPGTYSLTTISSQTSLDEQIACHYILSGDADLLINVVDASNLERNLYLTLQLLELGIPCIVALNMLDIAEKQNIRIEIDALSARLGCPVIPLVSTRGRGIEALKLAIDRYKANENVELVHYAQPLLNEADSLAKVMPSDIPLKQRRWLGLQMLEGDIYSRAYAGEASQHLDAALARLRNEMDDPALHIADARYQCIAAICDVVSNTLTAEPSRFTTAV

[7] = target: PaNFeoB (Pseudomonas aeruginosa, UniProt Q9HW43)

Structure (SMILES) | malachite green phosphate release [1] | malachite green phosphate release [2] | malachite green phosphate release [3] | malachite green phosphate release [4] | malachite green phosphate release [5] | malachite green phosphate release [6] | malachite green phosphate release [7]
Nc1ncnc2c1ncn2[C@@H]1O[C@H](COP(=O)(O)OP(=O)(O)OP(=O)(O)O)[C@@H](O)[C@H]1O [ATP] | LmNFeoB exhibited ATP hydrolysis activity similar to the activity of VcNFeoB | the NFeoB activities of S. aureus, S. mutans, and B. cereus | the NFeoB activities of S. aureus, S. mutans, and B. cereus | the NFeoB activities of S. aureus, S. mutans, and B. cereus |  |  | 
Nc1nc2c(ncn2[C@@H]2O[C@H](COP(=O)(O)OP(=O)(O)OP(=O)(O)O)[C@@H](O)[C@H]2O)c(=O)[nH]1 [GTP] | Its GTPase activity was higher than other monovalent cations | the NFeoB activities of S. aureus, S. mutans, and B. cereus | the NFeoB activities of S. aureus, S. mutans, and B. cereus | the NFeoB activities of S. aureus, S. mutans, and B. cereus | S. Typhimurium and P. aeruginosa exhibited only GTP hydrolytic activity | Like E. coli, S. Typhimurium and P. aeruginosa exhibited only GTP hydrolytic activity | S. Typhimurium and P. aeruginosa exhibited only GTP hydrolytic activity
